Test results published in patent US20150017667A1, “MEANS AND METHODS FOR ASSESSING LIVER DISORDERS” (BASF SE, priority 2012, published 2015).
Counter-ions that a name gives are not always drawn. Marks after values point to notes of the source that are not given here.

Tested on: male rats
Test: 28-day repeated dose oral toxicity study (OECD 407) with GC-MS/LC-MS plasma metabolite profiling, male rats
Type: in vivo, rat
Conditions: plasma
Text: Drinking water was also offered ad libitum.
The samples were centrifuged for generation of plasma.

## CN(CCOc1ccc(CC2SC(=O)NC2=O)cc1)c1ccccn1 (stereo not drawn) [Rosiglitazone maleate]
Day 7
  Alanine, ratio versus control: 0.78*
  Citrulline, ratio versus control: 0.88*
  Isoleucine, ratio versus control: 0.7*
  Leucine, ratio versus control: 0.74*
  Lysine, ratio versus control: 0.78*
  Ornithine, ratio versus control: 0.85*
  Phenylalanine, ratio versus control: 0.85*
  Phosphate (inorganic and organic phosphates), ratio versus control: 0.76*
  Phosphatidylcholine (C16:0,C16:0), ratio versus control: 1.14*
  Proline, ratio versus control: 0.89*
  Valine, ratio versus control: 0.74*
Day 7 (Table 4a)
  Phosphatidylcholine (C16:0,C20:5), ratio versus control: 1.07*
Day 7 (Table 4b)
  Docosahexaenoic acid (C22:cis[4,7,10,13,16,19]6), ratio versus control: 0.57*
  Phosphatidylcholine (C18:0,C22:6), ratio versus control: 0.87*
  Threonine, ratio versus control: 0.74*
Day 14
  Alanine, ratio versus control: 0.83*
  Citrulline, ratio versus control: 0.79
  Isoleucine, ratio versus control: 0.72*
  Leucine, ratio versus control: 0.66*
  Lysine, ratio versus control: 0.77*
  Ornithine, ratio versus control: 0.86*
  Phenylalanine, ratio versus control: 0.84*
  Phosphate (inorganic and organic phosphates), ratio versus control: 0.66*
  Phosphatidylcholine (C16:0,C16:0), ratio versus control: 1.22*
  Proline, ratio versus control: 0.88*
  Valine, ratio versus control: 0.74*
Day 14 (Table 4a)
  Phosphatidylcholine (C16:0,C20:5), ratio versus control: 1.11*
Day 14 (Table 4b)
  Docosahexaenoic acid (C22:cis[4,7,10,13,16,19]6), ratio versus control: 0.66*
  Phosphatidylcholine (C18:0,C22:6), ratio versus control: 0.9*
  Threonine, ratio versus control: 0.74*
Day 28
  Alanine, ratio versus control: 0.88*
  Citrulline, ratio versus control: 0.86*
  Isoleucine, ratio versus control: 0.78*
  Leucine, ratio versus control: 0.78*
  Lysine, ratio versus control: 0.86*
  Ornithine, ratio versus control: 0.78*
  Phenylalanine, ratio versus control: 0.81*
  Phosphate (inorganic and organic phosphates), ratio versus control: 0.69*
  Phosphatidylcholine (C16:0,C16:0), ratio versus control: 1.07
  Proline, ratio versus control: 0.93*
  Valine, ratio versus control: 0.84*
Day 28 (Table 4a)
  Phosphatidylcholine (C16:0,C20:5), ratio versus control: 1.06
Day 28 (Table 4b)
  Docosahexaenoic acid (C22:cis[4,7,10,13,16,19]6), ratio versus control: 0.83*
  Phosphatidylcholine (C18:0,C22:6), ratio versus control: 0.84*
  Threonine, ratio versus control: 0.87*
